Three compounds from patent publication US10894777B2, “TG2 inhibitor piperazine compounds and uses thereof” (UNIVERSITY OF OTTAWA, priority 2016, dated 2021) can be followed below.

One assay has as its system T98G cells. The assay can be described thus: Agarose colony formation assay, T98G cells. In kind it is cell-based, human. Conditions: 10 μM, 2 weeks. As to the method:
Agarose colony formation assay. Agarose colony formation assay was conducted as described (Horman, S. R. et al., J. Biomol. Screen 18(10):1298-308, 2013; Zhang, K. et al., Tumour Biol. 35(3):2537-48, 2014) using 6-well plates and 5,000 cells in each well. 10 μM NC9 or DMSO was added to every layer at the start of the experiments. 2 mL liquid MEM containing 10 μM NC9 or DMSO was used to cover the agarose and it was changed 3 times a week. Colony growth was monitored every day and at the end of 10-15 days, the colonies were fixed with 4% paraformaldehyde, stained with 0.005% crystal violet, washed with PBS twice and 40 random pictures were taken from each treatment group. A person blinded for the treatments measured the area of the colonies using ImageJ program and the volumes were calculated from the area data under the assumption that the colonies are perfect spheres. The volumes were used to compare the effect of NC9 on colony growth.

Another assay concerns GBM cells (U87 and T98G). The assay can be described thus: EdU incorporation assay. In kind it is cell-based, human. The conditions noted are these: 24 h. As to the method:
EdU Incorporation Assay. After treatment of cells seeded in PolyD-Lys coated coverslips, half of the media was replaced with 10 μM EdU in 10% FBS MEM. After 90 min, cells were fixed with 4% PFA and permeabilized with 0.5% Triton X-100. Detection of EdU was performed as directed in the Click-iT EdU Alexa 647 kit (Life Technologies). 1:2000 Hoechst dilution was used to stain nuclei. Randomized pictures were taken for each group and a person blinded for the treatments counted the EdU and Hoechst positive cells.

A further assay deals with T1, purified human TG2 (Homo sapiens, UniProt P21980).
T1 sequence (P21980 1-687): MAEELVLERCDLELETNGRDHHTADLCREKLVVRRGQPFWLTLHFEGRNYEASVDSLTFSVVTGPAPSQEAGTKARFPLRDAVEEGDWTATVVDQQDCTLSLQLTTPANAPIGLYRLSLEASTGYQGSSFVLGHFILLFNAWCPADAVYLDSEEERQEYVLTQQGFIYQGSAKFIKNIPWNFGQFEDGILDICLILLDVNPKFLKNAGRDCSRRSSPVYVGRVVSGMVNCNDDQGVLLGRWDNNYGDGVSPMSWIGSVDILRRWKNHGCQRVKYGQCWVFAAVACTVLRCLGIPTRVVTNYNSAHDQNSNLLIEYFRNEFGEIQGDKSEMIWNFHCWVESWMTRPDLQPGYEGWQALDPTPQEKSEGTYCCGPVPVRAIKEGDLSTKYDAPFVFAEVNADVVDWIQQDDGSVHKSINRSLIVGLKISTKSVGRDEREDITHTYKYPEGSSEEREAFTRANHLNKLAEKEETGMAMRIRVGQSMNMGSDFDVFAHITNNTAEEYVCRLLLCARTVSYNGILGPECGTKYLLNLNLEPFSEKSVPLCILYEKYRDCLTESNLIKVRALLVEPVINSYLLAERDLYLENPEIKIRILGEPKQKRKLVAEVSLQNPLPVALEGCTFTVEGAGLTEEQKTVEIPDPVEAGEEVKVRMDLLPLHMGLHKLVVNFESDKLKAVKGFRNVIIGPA
The assay can be described thus: Native PAGE of TG2 conformation. The format is biochemical. The conditions noted are these: NC9 120 μM, VA4 40 μM, VA5 40 μM with calcium, 90 min. As to the method: Following this incubation, samples were run on polyacrylamide gel under non-denaturing conditions and in the presence of […] and magnesium. The gel was Coomassie stained and a picture of the gel is shown.
Native PAGE. Native gel electrophoresis experiments were performed using a method similar to those described previously (Begg, G. E. et al., Proc. Natl. Acad. Sci. U.S.A. 103: 19683-19688, 2006; Pinkas, D. M. et al., PLoS Biol. 5: e327, 2007). Briefly, TG2 or inhibited TG2 (2.5 μM) was incubated for 1.5 h at room temperature in pre-incubation buffer (50 mM Tris, 5 mM DTT, 0.5 mM EDTA) at pH 7.0 with or without 100 μM GTP/1.0 mM MgCl2 or 5.0 mM CaCl2. Laemmli native loading buffer was added (1:1) and 1.5 μg of TG2 was loaded onto a 4-20% Tris-HCl ReadyGel (Bio-Rad) using Tris-glycine as the running buffer with 100 μM GTP/1.0 mM MgCl2. For 90 min, 120 V was applied at 4° C. The gel was stained with 0.5% Coomassie brilliant blue R-250 in 40% methanol/10% acetic acid and destained in 10% methanol/10% acetic acid.

The subject of a further assay is TS543 neurospheres. The assay can be described thus: Neurosphere growth, TS543 (mesenchymal). The format is cell-based, human. Conditions: 25 μM, 2 weeks. An excerpt:
Neurosphere cultures. TS543, TS565 and TS676, which represent the mesenchymal, proneural and classical glioblastoma subtypes respectively, based on transcriptomic and genomic analysis, were obtained from C. Brennan through the Monoclonal Antibody Core Facility at Memorial Sloan Kettering Cancer Center (Brennan, C. et al., PLoS One 4(11):e7752, 2009; Pyonteck, S. M. et al., Nature Med. 19(10):1264-72, 2013; Rohle, D. et al., Science 340(6132):626-30, 2013) and maintained in NeuroCult™ NS-A Proliferation Kit (Human) (Stem Cell Technologies) according to manufacturer's instructions. (NeuroCult Medium was supplemented with 20 ng/mL FGF, 50 ng/mL EGF and 0.0002% Heparin). To prevent neurosphere attachment to the bottom of the cell culture plates, Poly 2-hydroxyethyl methacrylate (PHM) was used. 6-well plates were coated with 1 mL/well of 1% PHM in ethanol (w/v). The plates were air dried in a sterile environment overnight and washed once with PBS and they were kept in the fridge in a sterile environment until use. For passaging, neurospheres were triturated according to instructions and 5,000 cells were seeded in each well in 2 mL medium. For treatments with TG2 inhibitors, cells were inoculated in medium containing 25 μM TG2 inhibitor or DMSO control. 200 μL of medium containing the 25 μM TG2 inhibitor or DMSO was added every other day. At the end of 2 weeks, 20-50 random microscopic images were captured for each group. The average volume of each sphere image was determined using Image J by a person blinded for neurosphere lines and treatments and volumes were calculated from the area data and used for comparison.

Turning to `C=CC(=O)NCCCC[C@H](NC(=O)OCc1ccccc1)C(=O)NCCOCCOCCNS(=O)(=O)c1cccc2c(N(C)C)cccc12` [NC9], in the assay on T98G cells, the “colony growth, T98G” value is recorded as “significantly reduced the growth”. In addition, the “proliferation (EdU incorporation)” value in the assay with GBM cells (U87 and T98G) is on record as “slowed down the proliferation”. On purified human TG2, the “conformation of inhibitor-bound TG2” value is “open conformation”. Besides, in the assay with TS543 neurospheres, the “sphere growth, TS543” value is listed as “suppressed sphere growth”.

Consider `C=CC(=O)NCCCC[C@H](NC(=O)OCc1ccccc1)C(=O)N1CCN(S(=O)(=O)c2cccc3c(N(C)C)cccc23)CC1` [VA4, (S)-benzyl(6-acrylamido-1-(4-((5-(dimethylamino)naphthalen-1-yl)sulfonyl)piperazin-1-yl)-1-oxohexan-2-yl)carbamate], for which, in the assay with T98G cells, the “colony growth, T98G” value was “inhibited colony growth”. Besides, the “proliferation (EdU incorporation)” value in the assay on GBM cells (U87 and T98G) was “slowed down the proliferation”. Also, the “conformation of inhibitor-bound TG2” value on purified human TG2 is given as “open conformation”. Also, in the assay on TS543 neurospheres, the “sphere growth, TS543” value was “suppressed sphere growth”.

For the compound `C=CC(=O)NCCCC[C@H](NC(=O)OCc1ccccc1)C(=O)N1CCN(C(=O)c2cc3ccc(O)cc3oc2=O)CC1` [VA5, (S)-Benzyl(6-acrylamido-1-(4-(7-hydroxy-2-oxo-2H-chromene-3-carbonyl)piperazin-1-yl)-1-oxohexan-2-yl)carbamate], in the assay with T98G cells, the “colony growth, T98G” value was “did not suppress colony growth”. Besides, in the assay on GBM cells (U87 and T98G), the “proliferation (EdU incorporation)” value is listed as “no effect”. Further, the “conformation of inhibitor-bound TG2” value on purified human TG2 was “open conformation”. Also, the “sphere growth, TS543” value with TS543 neurospheres is “promoted growth”.
